Literature values in US7919468B2, “Compounds useful as modulators of the proteasome activity” (Centre National de la Recherche Scientifique (C.N.R.S.), priority 2005, dated 2011).

Assays:
Conditions in all cases: cited from earlier work
[1] = molecular target: T1, m-calpain (Homo sapiens, UniProt P17655)
T1 sequence (P17655 1-700): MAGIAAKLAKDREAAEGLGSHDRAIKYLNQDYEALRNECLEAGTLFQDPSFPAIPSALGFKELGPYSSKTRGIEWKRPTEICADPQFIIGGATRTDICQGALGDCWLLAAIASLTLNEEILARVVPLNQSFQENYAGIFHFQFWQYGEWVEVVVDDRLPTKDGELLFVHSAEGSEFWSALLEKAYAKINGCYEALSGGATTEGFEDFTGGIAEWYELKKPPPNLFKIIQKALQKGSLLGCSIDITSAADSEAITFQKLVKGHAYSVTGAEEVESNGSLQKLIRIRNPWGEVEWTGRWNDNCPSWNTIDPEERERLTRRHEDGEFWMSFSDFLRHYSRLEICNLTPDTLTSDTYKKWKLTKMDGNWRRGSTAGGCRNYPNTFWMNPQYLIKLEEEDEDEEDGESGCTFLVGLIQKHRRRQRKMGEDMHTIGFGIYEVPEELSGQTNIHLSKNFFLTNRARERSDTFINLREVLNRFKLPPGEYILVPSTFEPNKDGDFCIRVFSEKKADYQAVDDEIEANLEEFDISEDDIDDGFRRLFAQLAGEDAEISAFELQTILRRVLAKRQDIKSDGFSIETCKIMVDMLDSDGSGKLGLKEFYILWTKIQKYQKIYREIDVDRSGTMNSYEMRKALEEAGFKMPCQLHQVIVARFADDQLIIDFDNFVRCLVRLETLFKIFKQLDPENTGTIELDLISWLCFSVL
T1 sequence (P04632 1-268 partner): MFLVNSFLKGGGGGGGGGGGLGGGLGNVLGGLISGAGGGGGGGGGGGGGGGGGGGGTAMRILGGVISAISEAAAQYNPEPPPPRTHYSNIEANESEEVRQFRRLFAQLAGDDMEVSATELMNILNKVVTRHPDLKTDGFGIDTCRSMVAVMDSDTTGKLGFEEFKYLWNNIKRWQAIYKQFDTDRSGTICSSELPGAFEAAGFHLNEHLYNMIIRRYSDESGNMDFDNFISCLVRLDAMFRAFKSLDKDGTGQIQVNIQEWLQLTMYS

[2] = molecular target: cathepsin-L (Homo sapiens, UniProt P07711)
Sequence of cathepsin-L (P07711 114-333, species assumed): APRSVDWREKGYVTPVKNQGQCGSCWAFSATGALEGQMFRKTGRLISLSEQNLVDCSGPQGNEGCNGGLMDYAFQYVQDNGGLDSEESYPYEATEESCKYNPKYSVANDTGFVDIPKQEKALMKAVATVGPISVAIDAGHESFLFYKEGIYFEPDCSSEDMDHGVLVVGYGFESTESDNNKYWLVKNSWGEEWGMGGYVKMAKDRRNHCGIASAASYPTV

[3] = molecular target: T2, trypsin (Bos taurus, UniProt P00760)
T2 construct: gene PRSS1
T2 sequence (P00760 24-246): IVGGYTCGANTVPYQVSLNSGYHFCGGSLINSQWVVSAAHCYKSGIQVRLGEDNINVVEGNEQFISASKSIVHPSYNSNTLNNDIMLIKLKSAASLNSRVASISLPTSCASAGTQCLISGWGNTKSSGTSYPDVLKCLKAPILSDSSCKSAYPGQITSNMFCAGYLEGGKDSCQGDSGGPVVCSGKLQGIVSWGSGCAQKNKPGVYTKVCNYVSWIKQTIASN

[4] = molecular target: T3, cathepsin A (Homo sapiens, UniProt P10619)
T3 sequence (P10619 29-480): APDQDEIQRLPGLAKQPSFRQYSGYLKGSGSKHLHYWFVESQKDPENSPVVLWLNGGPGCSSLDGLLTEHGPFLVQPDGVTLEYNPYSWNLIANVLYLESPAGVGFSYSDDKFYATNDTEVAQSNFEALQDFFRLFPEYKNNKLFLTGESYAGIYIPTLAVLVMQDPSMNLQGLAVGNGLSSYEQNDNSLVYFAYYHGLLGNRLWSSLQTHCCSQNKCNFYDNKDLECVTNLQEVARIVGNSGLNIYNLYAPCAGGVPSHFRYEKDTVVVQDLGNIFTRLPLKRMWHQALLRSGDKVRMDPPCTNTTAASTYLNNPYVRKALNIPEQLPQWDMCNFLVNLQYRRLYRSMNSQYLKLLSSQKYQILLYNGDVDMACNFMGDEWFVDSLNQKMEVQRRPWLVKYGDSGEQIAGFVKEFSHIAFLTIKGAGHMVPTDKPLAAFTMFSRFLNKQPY

[5] = molecular target: cytosolic tripeptidyl peptidase II (Homo sapiens, UniProt P29144)
Sequence of cytosolic tripeptidyl peptidase II (P29144 whole entry): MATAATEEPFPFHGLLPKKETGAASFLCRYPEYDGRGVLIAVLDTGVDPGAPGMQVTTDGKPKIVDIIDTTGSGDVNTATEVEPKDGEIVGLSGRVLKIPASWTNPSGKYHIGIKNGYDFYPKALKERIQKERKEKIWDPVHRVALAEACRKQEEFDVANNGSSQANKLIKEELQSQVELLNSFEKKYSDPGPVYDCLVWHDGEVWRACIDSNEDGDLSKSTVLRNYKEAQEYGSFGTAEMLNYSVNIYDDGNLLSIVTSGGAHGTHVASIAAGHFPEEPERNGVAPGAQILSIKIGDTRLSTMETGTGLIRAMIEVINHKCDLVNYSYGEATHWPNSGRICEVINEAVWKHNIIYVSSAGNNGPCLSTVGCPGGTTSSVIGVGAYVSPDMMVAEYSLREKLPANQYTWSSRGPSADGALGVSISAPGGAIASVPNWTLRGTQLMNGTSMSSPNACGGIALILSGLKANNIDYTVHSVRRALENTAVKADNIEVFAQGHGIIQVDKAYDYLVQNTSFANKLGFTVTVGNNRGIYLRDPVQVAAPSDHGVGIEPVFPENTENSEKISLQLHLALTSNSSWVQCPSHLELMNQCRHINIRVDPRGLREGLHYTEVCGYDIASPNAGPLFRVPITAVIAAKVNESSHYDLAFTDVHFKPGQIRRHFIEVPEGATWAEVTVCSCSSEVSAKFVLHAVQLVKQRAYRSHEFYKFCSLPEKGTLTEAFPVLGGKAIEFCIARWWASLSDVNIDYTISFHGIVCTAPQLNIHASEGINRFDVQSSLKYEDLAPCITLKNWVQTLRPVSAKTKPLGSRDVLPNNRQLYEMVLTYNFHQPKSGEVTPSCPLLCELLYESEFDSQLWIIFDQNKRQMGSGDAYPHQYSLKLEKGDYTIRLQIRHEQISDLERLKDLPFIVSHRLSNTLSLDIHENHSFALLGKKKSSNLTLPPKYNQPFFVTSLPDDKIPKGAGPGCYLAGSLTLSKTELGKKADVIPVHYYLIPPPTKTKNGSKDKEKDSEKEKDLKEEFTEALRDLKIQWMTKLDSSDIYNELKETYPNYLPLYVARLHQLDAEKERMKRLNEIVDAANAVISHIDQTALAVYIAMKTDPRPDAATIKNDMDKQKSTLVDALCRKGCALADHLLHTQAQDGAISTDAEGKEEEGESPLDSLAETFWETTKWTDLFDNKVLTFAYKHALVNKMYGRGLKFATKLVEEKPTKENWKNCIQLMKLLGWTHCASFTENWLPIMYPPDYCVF

| Compound | inhibition of m-calpain [1] | inhibition of cathepsin-L [2] | inhibition of trypsin [3] | inhibition of cathepsin A [4] | inhibition of tripeptidyl peptidase II [5] |
| --- | --- | --- | --- | --- | --- |
| C/C=C\NC(=O)[C@H]1NC(=O)[C@H](CC(N)=O)NC(=O)[C@@H](NC(=O)C(=O)[C@@H](C)CC)Cc2ccc(O)c(c2)-c2cccc3c2NC(=O)[C@@]3(O)[C@@H]1O [TMC-95A] | no inhibition | no inhibition | no inhibition |  |  |
| CC(=O)N[C@@H](CSC(=O)[C@]1([C@@H](O)C(C)C)NC(=O)[C@H](C)[C@@H]1O)C(=O)O [Lactacystin, lactacystin] |  |  |  | inhibited | inhibited |
